The results in this text go back to US20110245242A1, “Heterocyclically Substituted Anilinopyrimides” (Bayer CropScience AG, priority 2008, published 2011).

A short description of the first data set: log P by HPLC on reversed-phase columns (C 18), method [a], acidic range pH 2.3. To be noted: pH 2.3. Format: physicochemical. On the procedure: The log P values were measured in accordance with EEC Directive 79/831 Annex V.A8 by HPLC (High Performance Liquid Chromatography) on reversed-phase columns (C 18) using the methods below: [a] The determination was carried out in the acidic range at pH 2.3 using the mobile phases 0.1% aqueous phosphoric acid and acetronitrile linear gradient from 10% acetonitrile to 95% acetronitrile.
On to `CCC1COC(=O)N1c1cccc(Nc2ncc(Br)c(NC3CC3)n2)c1` (stereo not drawn) [Example 32], for which the log p is 2.01[a]. As for `COCC(C)Nc1nc(Nc2cccc(N3CCCC3=O)c2)ncc1Cl` (stereo not drawn) [Example 2], the log p was 1.53[a]. `O=C1CCC(c2ccccc2)N1c1cccc(Nc2ncc(Cl)c(NC3CC3)n2)c1` (stereo not drawn) [Example 87]: the log p is 2.1[a]. For `CCC1=C(C)CN(c2cccc(Nc3ncc(Br)c(NC4CC4)n3)c2)C1=O` [Example 232], the log p is 2.42[a]. For `O=C1CCCCCN1c1cccc(Nc2ncc(Br)c(NC3CC3)n2)c1` [Example 54], the log p was 1.82[a]. Still for that read-out and setting: under `CC(C)CC1COC(=O)N1c1cccc(Nc2ncc(Br)c(NC3CCC3)n2)c1` (stereo not drawn) [Example 50] stands 3.05[a]. As to `CNc1nc(Nc2cccc(N3CCCC3=O)c2)ncc1Cl` [Example 38], the log p is 1.05[a]. On the same count and under the same terms, under `CC(C)C1COC(=O)N1c1cccc(Nc2ncc(Cl)c(NC3CC3)n2)c1` (stereo not drawn) [Example 39] stands 2.13[a]. With `CC(C)C1COC(=O)N1c1cccc(Nc2ncc(Cl)c(NC3CCC3)n2)c1` (stereo not drawn) [Example 46], the log p is 2.41[a]. Same read-out and setting: under `CC(C)C1COC(=O)N1c1cccc(Nc2ncc(Br)c(NC3CC3)n2)c1` (stereo not drawn) [Example 45] stands 2.24[a]; under `CCC(C)Nc1nc(Nc2ccc(N3CCCC3=O)cc2)ncc1Cl` (stereo not drawn) [Example 7], 1.65[a]. Take `O=C1OCCN1c1ccc(Nc2ncc(C(F)(F)F)c(Cl)n2)cc1` [VI-4, 3-(4-{[4-Chloro-5-(trifluoromethyl)pyrimidin-2-yl]amino}phenyl)-1,3-oxazolidin-2-one]: the “log P (pH 2.3)” value came to 2.76.

Regarding `CCC1CC(C)C(=O)N1` (stereo not drawn) [5-Ethyl-3-methylpyrrolidin-2-one], the “log P (pH 2.3)” value amounted to 0.96. Turning to `CC(C)CC1COC(=O)N1c1cccc(Nc2ncc(Cl)c(NC3CC3)n2)c1` (stereo not drawn) [Example 47], the log p is 2.54[a]. On to `FC(F)CNc1nc(Cl)ncc1Cl` [Example V-4, 2,5-Dichloro-N-(2,2-difluoroethyl)pyrimidin-4-amine], for which the “log P (pH 2.3)” value turned out to be 1.96.

For the molecule `CC(C)CC1COC(=O)N1c1cccc(Nc2ncc(Cl)c(NC3CCC3)n2)c1` (stereo not drawn) [Example 49], the log p is 2.83[a]. Regarding `CC1CCN(c2cccc(Nc3ncc(Cl)c(NC4CC4)n3)c2)C1=O` (stereo not drawn) [Example 26], the log p is 1.76[a]. Same read-out and setting: under `CCCNc1nc(Cl)ncc1Cl` [Example V-38, 2,5-Dichloro-N-propylpyrimidin-4-amine] stands 2.42.

The data set is the same for the next values; noted with them: pH 2.3, log P (pH 2.3).
Molecule `CC(Nc1nc(Cl)ncc1Cl)C(F)(F)F` (stereo not drawn) [Example V-37, 2,5-Dichloro-N-(1,1,1-trifluoropropan-2-yl)pyrimidin-4-amine] registered a chromatographic logP of 2.66.

In turn, `CC(C)[C@@H]1COC(=O)N1c1cccc(N)c1` [(4R)-3-(3-Aminophenyl)-4-isopropyl-1,3-oxazolidin-2-one] returned a chromatographic logP of 1.18. Molecule `CC1CCN(Cc2cccc([N+](=O)[O-])c2)C1=O` (stereo not drawn) [3-Methyl-1-(3-nitrobenzyl)pyrrolidin-2-one] showed a chromatographic logP of 1.82. Same read-out and setting: under `CC1CC(Nc2nc(Cl)ncc2Br)C1` (stereo not drawn) [Example V-6, 5-Bromo-2-chloro-N-(3-methylcyclobutyl)pyrimidin-4-amine] stands 3.47; under `CC1(C)CC(=O)N(c2cccc([N+](=O)[O-])c2)C1=O` [3,3-Dimethyl-1-(3-nitrophenyl)pyrrolidine-2,5-dione], 2.01; under `Clc1ncc(Cl)c(N2CCC2)n1` [Example V-35, 4-(Azetidin-1-yl)-2,5-dichloropyrimidine], 2.11.

Take `Nc1cccc(N2CCOC2=O)c1` [3-(3-Aminophenyl)-1,3-oxazolidin-2-one]: the chromatographic logP is -0.18. `CCC1CC1Nc1nc(Cl)ncc1Cl` (stereo not drawn) [Example V-43, 2,5-Dichloro-N-(2-ethylcyclopropyl)pyrimidin-4-amine] displayed a chromatographic logP of 3.1. With `Nc1cc(N2C(=O)CCC2=O)ccc1Cl` [1-(3-Amino-4-chlorophenyl)pyrrolidine-2,5-dione], the chromatographic logP came out at 0.79. For `FC(F)(F)c1cc(Br)cc(Nc2ncc(Cl)c(NC3CC3)n2)c1` [VII-7, N^2-[3-Bromo-5-(trifluoromethyl)phenyl]-5-chloro-N^4-cyclopropylpyrimidine-2,4-diamine], the chromatographic logP stood at 4.6. The same measure, in the same setting: under `CC1CC1Nc1nc(Cl)ncc1Cl` (stereo not drawn) [Example V-40, 2,5-Dichloro-N-(2-methylcyclopropyl)pyrimidin-4-amine] stands 2.53; under `Clc1ncc(Cl)c(NC2COC2)n1` [Example V-29, 2,5-Dichloro-N-(oxetan-3-yl)pyrimidin-4-amine], 1.31. Same read-out and setting: the same measure for `Brc1cnc(Nc2cccc(I)c2)nc1NC1CC1` [VII-2, 5-Bromo-N^4-cyclopropyl-N^2-(3-iodophenyl)pyrimidine-2,4-diamine]: 3.34; for `CC1CCC(=O)N1c1cccc(N)c1` (stereo not drawn) [1-(3-Aminophenyl)-5-methylpyrrolidin-2-one]: 0.52. Still for that read-out and setting: under `COc1cc(N2CCCC2=O)cc([N+](=O)[O-])c1` [1-(3-Methoxy-5-nitrophenyl)pyrrolidin-2-one] stands 1.99; under `CC1CC(Nc2nc(Cl)ncc2Cl)C1` (stereo not drawn) [Example V-39, 2,5-Dichloro-N-(3-methylcyclobutyl)pyrimidin-4-amine], 3.2.

On to `Clc1ccc(Nc2ncc(Cl)c(NC3CC3)n2)cc1Br` [VII-6, N^2-(3-Bromo-4-chlorophenyl)-5-chloro-N^4-cyclopropylpyrimidine-2,4-diamine], for which the chromatographic logP worked out at 3.55. Take `Brc1ccc(Nc2ncc(Br)c(NC3CC3)n2)cc1` [VII-11, 5-Bromo-N^2-(4-bromophenyl)-N^4-cyclopropylpyrimidine-2,4-diamine]: the chromatographic logP is 2.7. As to `FC(F)CNc1nc(Cl)ncc1Cl` [Example V-2, 2,5-Dichloro-N-(2,2-difluoroethyl)pyrimidin-4-amine], the chromatographic logP turned out to be 1.96.

In turn, `C[C@@H]1COC(=O)N1c1cccc(N)c1` [(4R)-3-(3-Aminophenyl)-4-methyl-1,3-oxazolidin-2-one] returned a chromatographic logP of 0.27. In turn, `O=C1CCCN1c1cc(Nc2ncc(C(F)(F)F)c(Cl)n2)ccc1F` [VI-2, 1-(5-{[4-Chloro-5-(trifluoromethyl)pyrimidin-2-yl]amino}-2-fluorophenyl)pyrrolidin-2-one] registered a chromatographic logP of 2.84. As for `Clc1cnc(Nc2ccc(I)cc2)nc1NC1CCC1` [VII-12, 5-Chloro-N^4-cyclobutyl-N^2-(4-iodophenyl)pyrimidine-2,4-diamine], the chromatographic logP came out at 3.49.

For `CC1CC1Nc1nc(Cl)ncc1Br` (stereo not drawn) [Example V-41, 5-Bromo-2-chloro-N-(2-methylcyclopropyl)pyrimidin-4-amine], the chromatographic logP was determined as 2.68. Still for that read-out and setting: under `O=C1CCCN1c1cccc(Nc2ncc(C(F)F)c(F)n2)c1` [VI-3, 1-(3-{[5-(Difluoromethyl)-4-fluoropyrimidin-2-yl]amino}phenyl)pyrrolidin-2-one] stands 2.28; under `CC1(C)CC1Nc1nc(Cl)ncc1Cl` (stereo not drawn) [Example V-27, 2,5-Dichloro-N-(2,2-dimethylcyclopropyl)pyrimidin-4-amine], 3.04.

Consider `CC1CN(c2cccc(N)c2)C(=O)O1` (stereo not drawn) [3-(3-Aminophenyl)-5-methyl-1,3-oxazolidin-2-one], for which the chromatographic logP turned out to be 0.33. The same measure, in the same setting: the same measure for `CC1CC1Nc1nc(Cl)ncc1C(F)(F)F` (stereo not drawn) [Example V-42, 2-Chloro-N-(2-methylcyclopropyl)-5-(trifluoromethyl)pyrimidin-4-amine]: 3.02. `Clc1ncc(Cl)c(N2CCCCC2)n1` [Example V-36, 2,5-Dichloro-4-(piperidin-1-yl)pyrimidine] came in with a chromatographic logP of 3.52.

In turn, `CC1(C)CC(=O)N(c2cccc(N)c2)C1=O` [1-(3-Aminophenyl)-3,3-dimethylpyrrolidine-2,5-dione] came in with a chromatographic logP of 0.86. On the same count and under the same terms, under `COCC(C)Nc1nc(Cl)ncc1C(F)(F)F` (stereo not drawn) [Example V-3, 2-Chloro-N-(3-methoxypropan-2-yl)-5-trifluoromethylpyrimidin-4-amine] stands 2.75.

`Clc1cnc(Nc2cccc(Br)c2)nc1NC1CC1` [VII-5, N^2-(3-Bromophenyl)-5-chloro-N^4-cyclopropylpyrimidine-2,4-diamine] displayed a chromatographic logP of 2.91.

On to `Clc1ncc(Cl)c(N2CCCC2)n1` [Example V-34, 2,5-Dichloro-4-(pyrrolidin-1-yl)pyrimidine], for which the chromatographic logP was determined as 2.78. Still for that read-out and setting: under `O=C1OCCN1c1ccc(Nc2ncc(C(F)(F)F)c(Cl)n2)cc1` [VI-4, 3-(4-{[4-Chloro-5-(trifluoromethyl)pyrimidin-2-yl]amino}phenyl)-1,3-oxazolidin-2-one] stands 2.74; under `Brc1ccc(Nc2ncc(Br)c(NCC3CC3)n2)cc1` [VII-9, 5-Bromo-N^2-(4-bromophenyl)-N^4-(cyclopropylmethyl)pyrimidine-2,4-diamine], 2.84; under `CCC1CC(C)C(=O)N1` (stereo not drawn) [5-Ethyl-3-methylpyrrolidin-2-one], 1.02. For `COc1cc(NC(=O)CCCCl)cc([N+](=O)[O-])c1` [4-Chloro-N-(3-methoxy-5-nitrophenyl)butanamide], the chromatographic logP is 2.46.

On to `Clc1cnc(Nc2ccc(Br)cc2)nc1NC1CC1` [VII-8, N^2-(4-Bromophenyl)-5-chloro-N^4-cyclopropylpyrimidine-2,4-diamine], for which the chromatographic logP is 2.55. Still for that read-out and setting: the same measure for `Nc1cccc(N2C(=O)CCC2C(F)(F)F)c1` (stereo not drawn) [1-(3-Aminophenyl)-5-(trifluoromethyl)pyrrolidin-2-one]: 1.07; for `Brc1ccc(Nc2ncc(Br)c(NC3CCC3)n2)cc1` [VII-10, 5-Bromo-N^2-(4-bromophenyl)-N^4-cyclobutylpyrimidine-2,4-diamine]: 3.18.

The chromatographic logP is a lipophilicity value derived from retention on a column. Read a high chromatographic logP as a more lipophilic compound.
